Consider six molecules from the NIST ThermoML archive (doi:10.1016/j.jct.2015.11.016).

SMILES strings stand for the structures. Numbers after ± are expanded uncertainties.

The conditions of data set [1]: 298.15 K; 101.33 kPa; Liquid; Vibrating tube method.
A short description of data set [2]: xn = mol fraction of the nth substance listed. The note with it: 298.15 K, 100 kPa, Liquid, Vibrating tube method.

As for `c1ccccc1` [benzene], the mass density (commonly mass per unit of volume) in data set [1] turned out to be 873.71 ± 2 kg/m3.
Take `CCCC[N+]1(C)CCCC1.N#CN=C=[N-]` [1-butyl-1-methylpyrrolidinium dicyanamide] + c1ccccc1: the mass density in data set [2] (x2 = 0.706) was determined as 964.75 ± 6.2 kg/m3.
As to `CCCCCCCC` [octane], the mass density in data set [1] is given as 698.86 ± 2 kg/m3.
On to `CCCCCCCCCC` [decane], for which, in data set [1], the mass density is 726.15 ± 2 kg/m3.
For the molecule `CCCC[N+]1(C)CCCC1.N#CN=C=[N-]` [1-butyl-1-methylpyrrolidinium dicyanamide], the mass density in data set [1] is listed as 1014.47 ± 6 kg/m3.
In the case of `CCCC[N+]1(C)CCCC1.N#CN=C=[N-]` [1-butyl-1-methylpyrrolidinium dicyanamide] + CCCCCCCC, the mass density in data set [2] (x2 = 0.01) is listed as 1012.4 ± 6.1 kg/m3.
